# According to ChEMBL document CHEMBL4346657, “Anticancer activity, dual prooxidant/antioxidant effect and apoptosis induction profile of new bichalcophene-5-carboxamidines” (Eur J Med Chem, 2019):
# Active and inactive are the calls of the source. The rule behind the calls is not given here.
# Assays:
# [1] = Selectivity index, ratio of IC50 for human WI38 cells to GI50 for human NCI60 cells
# Erythrocyte [2] = assay: (§1) Haemolytic activity in human erythrocytes assessed as induction of hemolysis at 1.25 mM after 30 mins relative to H202; type: cell-based; settings: erythrocyte, 0.5 h, 1250 µM
# MDA-MB-435 = assay: Antiproliferative activity against human MDA-MB-435 cells assessed as growth inhibition after 48 hrs by sulforhodamine B assay; type: functional; settings: MDA-MB-435, 48 h
# HL-60(TB) = assay: Antiproliferative activity against human HL-60(TB) cells assessed as growth inhibition after 48 hrs by sulforhodamine B assay; type: functional; settings: HL-60, 48 h
# DU-145 = assay: Antiproliferative activity against human DU145 cells assessed as growth inhibition after 48 hrs by sulforhodamine B assay; type: functional; settings: DU-145, 48 h
# SK-MEL-28 = assay: Antiproliferative activity against human SK-MEL-28 cells assessed as growth inhibition after 48 hrs by sulforhodamine B assay; type: functional; settings: SK-MEL-28, 48 h
# HCT-116 [3] = assay: Reduction in CDK1 mRNA expression in human HCT116 cells at 100 nM after 6 hrs hrs by SYBR green dye-based qRT-PCR analysis relative to control; type: functional; settings: HCT-116, 6 h
# UO-31 = assay: Antiproliferative activity against human UO31 cells assessed as growth inhibition after 48 hrs by sulforhodamine B assay; type: functional; settings: UO-31, 48 h
# SR = assay: Antiproliferative activity against human SR cells assessed as growth inhibition after 48 hrs by sulforhodamine B assay; type: functional
# PC-3 = assay: Antiproliferative activity against human PC3 cells assessed as growth inhibition after 48 hrs by sulforhodamine B assay; type: functional; settings: PC-3, 48 h
# EKVX = assay: Antiproliferative activity against human EKVX cells assessed as growth inhibition after 48 hrs by sulforhodamine B assay; type: functional
# KM12 = assay: Antiproliferative activity against human KM12 cells assessed as growth inhibition after 48 hrs by sulforhodamine B assay; type: functional; settings: KM12, 48 h
# MCF7 = assay: Antiproliferative activity against human MCF7 cells assessed as growth inhibition after 48 hrs by sulforhodamine B assay; type: functional; settings: MCF7, 48 h
# MDA-MB-468 = assay: Antiproliferative activity against human MDA-MB-468 cells assessed as growth inhibition after 48 hrs by sulforhodamine B assay; type: functional; settings: MDA-MB-468, 48 h
# CCRF-CEM = assay: Antiproliferative activity against human CCRF-CEM cells assessed as growth inhibition after 48 hrs by sulforhodamine B assay; type: functional
# OVCAR-5 = assay: Antiproliferative activity against human OVCAR5 cells assessed as growth inhibition after 48 hrs by sulforhodamine B assay; type: functional; settings: OVCAR-5, 48 h
# NCI-H322M = assay: Antiproliferative activity against human NCI-H322M cells assessed as growth inhibition after 48 hrs by sulforhodamine B assay; type: functional
# SF-539 = assay: Antiproliferative activity against human SF539 cells assessed as growth inhibition after 48 hrs by sulforhodamine B assay; type: functional; settings: SF-539, 48 h
# HCT-15 = assay: Antiproliferative activity against human HCT15 cells assessed as growth inhibition after 48 hrs by sulforhodamine B assay; type: functional; settings: HCT-15, 48 h
# LOX IMVI = assay: Antiproliferative activity against human LOXIMVI cells assessed as growth inhibition after 48 hrs by sulforhodamine B assay; type: functional
# [4] = Antioxidant activity assessed as ABTS radical scavenging activity by spectrophotometric analysis relative to control; type: functional; design: concentration or dose not given beside the values; settings: dose or concentration not given here
# SNB-19 = assay: Antiproliferative activity against human SNB19 cells assessed as growth inhibition after 48 hrs by sulforhodamine B assay; type: functional; settings: SNB-19, 48 h
# CAKI-1 = assay: Antiproliferative activity against human CAKI-1 cells assessed as growth inhibition after 48 hrs by sulforhodamine B assay; type: functional; settings: CAKI-1, 48 h
# M14 = assay: Antiproliferative activity against human M14 cells assessed as growth inhibition after 48 hrs by sulforhodamine B assay; type: functional; settings: M14, 48 h
# SN12C = assay: Antiproliferative activity against human SN12C cells assessed as growth inhibition after 48 hrs by sulforhodamine B assay; type: functional
# [5] = Antioxidant activity assessed as hydroxyl radical scavenging activity after 1 hr by salicylic acid-based Fenton reaction assay; type: functional
# K562 = assay: Antiproliferative activity against human K562 cells assessed as growth inhibition after 48 hrs by sulforhodamine B assay; type: functional, cell-based; settings: K562, 48 h
# COLO 205 = assay: Antiproliferative activity against human COLO205 cells assessed as growth inhibition after 48 hrs by sulforhodamine B assay; type: functional; settings: COLO 205, 48 h
# UACC-62 = assay: Antiproliferative activity against human UACC62 cells assessed as growth inhibition after 48 hrs by sulforhodamine B assay; type: functional; settings: UACC-62, 48 h
# T47D = assay: Antiproliferative activity against human T47D cells assessed as growth inhibition after 48 hrs by sulforhodamine B assay; type: functional
# A549 = assay: Antiproliferative activity against human A549/ATCC cells assessed as growth inhibition after 48 hrs by sulforhodamine B assay; type: functional; settings: A549, 48 h
# SK-MEL-2 = assay: Antiproliferative activity against human SK-MEL-2 cells assessed as growth inhibition after 48 hrs by sulforhodamine B assay; type: functional; settings: SK-MEL-2, 48 h
# SK-MEL-5 = assay: Antiproliferative activity against human SK-MEL-5 cells assessed as growth inhibition after 48 hrs by sulforhodamine B assay; type: functional; settings: SK-MEL-5, 48 h
# HCT-116 [6] = assay: Induction of apoptosis in human HCT116 cells assessed as increase in p53 mRNA expression at 100 nM after 6 hrs hrs by SYBR green dye-based qRT-PCR analysis relative to control; type: functional
# HCT-116 [7] = assay: Induction of apoptosis in human HCT116 cells assessed as increase in caspase 9 mRNA expression at 100 nM after 6 hrs hrs by SYBR green dye-based qRT-PCR analysis relative to control; type: functional
# [8] = Pro-oxidant activity assessed as increase in bleomycin-Fe2+ induced calf thymus DNA damage at 2 mM after 1 hr by thiobarbituric acid based absorbance analysis
# Erythrocyte [9] = assay: (§2) Haemolytic activity in human erythrocytes assessed as induction of hemolysis at 2.5 mM after 30 mins relative to H202; type: cell-based; settings: erythrocyte, 0.5 h, 2500 µM
# [10] = as §1; type: cell-based, Erythrocyte; settings: erythrocytes, read-out: Activity
# [11] = as §2; type: cell-based, Erythrocyte; settings: erythrocytes, read-out: Activity
# HOP-92 = assay: Antiproliferative activity against human HOP92 cells assessed as growth inhibition after 48 hrs by sulforhodamine B assay; type: functional; settings: HOP-92, 48 h
Structure (SMILES),Selectivity Index [1],GI50 (MDA-MB-435) [nM],GI50 (HL-60(TB)) [nM],GI50 (DU-145) [nM],GI50 (SK-MEL-28) [nM],GI50 (UO-31) [nM],GI50 (SR) [nM],GI50 (PC-3) [nM],GI50 (EKVX) [nM],GI50 (KM12) [nM],GI50 (MCF7) [nM],GI50 (MDA-MB-468) [nM],GI50 (CCRF-CEM) [nM],GI50 (OVCAR-5) [nM],GI50 (NCI-H322M) [nM],GI50 (SF-539) [nM],GI50 (HCT-15) [nM],GI50 (LOX IMVI) [nM],inhibition [4] [%],GI50 (SNB-19) [nM],other results
N=C(N)c1ccc(-c2ccc(-c3cc(Cl)cc(Cl)c3)s2)s1,50.9,1670,1660,1820,1830,1740,1060,1880,1750,1750,1340,2060,2140,1960,1660,1700,1620,1690,36.2,2110,Activity (Erythrocyte [2]): Non-Toxic; inhibition at 0.1 µM (HCT-116 [3]): 79%; GI50 (CAKI-1): 1720 nM; GI50 (M14): 2020 nM; GI50 (SN12C): 2020 nM; Activity [5]: Active; IC50 (K562; read-out: IC50): 1.29 µM; GI50 (COLO 205): 1540 nM; GI50 (UACC-62): 1920 nM; GI50 (T47D): 1800 nM; GI50 (A549): 2070 nM; GI50 (SK-MEL-2): 2240 nM; GI50 (SK-MEL-5): 1900 nM; fold change (FC) (HCT-116 [6]): 3.98; fold change (FC) (HCT-116 [7]): 1.54; Activity [8]: Active; Activity (Erythrocyte [9]): Non-Toxic
N=C(N)c1ccc(-c2ccc(-c3ccc(Cl)cc3)o2)o1,5.5,1380,1870,1750,1830,1750,1630,1810,1500,1630,1270,2190,1960,1820,1670,1710,1520,1760,20.4,1860,"hemolysis at 0.5 h, 1250 µM [10]: 14%; GI50 (CAKI-1): 1690 nM; GI50 (M14): 1850 nM; GI50 (SN12C): 1900 nM; Activity [5]: Active; IC50 (K562; read-out: IC50): 1.37 µM; GI50 (COLO 205): 1830 nM; GI50 (UACC-62): 1890 nM; GI50 (T47D): 1710 nM; GI50 (A549): 1980 nM; GI50 (SK-MEL-2): 2080 nM; GI50 (SK-MEL-5): 1810 nM; fold change (FC) (HCT-116 [6]): 1.09; fold change (FC) (HCT-116 [7]): 4; Activity [8]: Active; hemolysis at 0.5 h, 2500 µM [11]: 41.3%"
N=C(N)c1ccc(-c2ccc(-c3cncc4ccccc34)s2)s1,>74.6,2030,1920,1550,1640,1390,270,1560,1330,1510,280,1270,360,1710,1660,1730,980,1110,69.9,2170,Activity (Erythrocyte [2]): Non-Toxic; inhibition at 0.1 µM (HCT-116 [3]): 84%; GI50 (HOP-92): 1370 nM; GI50 (CAKI-1): 1600 nM; GI50 (M14): 1620 nM; GI50 (SN12C): 1800 nM; Activity [5]: Active; IC50 (K562; read-out: IC50): 0.24 µM; IC50 (K562; read-out: pIC50 (converted)): 38000 µM; GI50 (COLO 205): 750 nM; GI50 (UACC-62): 2310 nM; GI50 (T47D): 1520 nM; GI50 (A549): 1620 nM; GI50 (SK-MEL-2): 2000 nM; GI50 (SK-MEL-5): 1740 nM; fold change (FC) (HCT-116 [6]): 4.67; fold change (FC) (HCT-116 [7]): 1.27; Activity [8]: Active; Activity (Erythrocyte [9]): Non-Toxic
